Experimental data: patent US7973062B2, “Androgen receptor-ablative agents” (The Ohio State University Research Foundation, priority 2008, dated 2011)

Legend:
Format in all cases: cell-based
AR promoter = assay: AR promoter-luciferase reporter assay in transiently transfected LNCaP cells; settings: compounds at 10 μM, 48 h, ciglitazone and Δ2CG at 20 μM
Text: (§1) Transfection and Luciferase assay. The 3.6-kilobase AR promoter-linked reporter plasmid p-3600ARCAT was kindly provided by Dr. Chawnshang Chang (University of Rochester Medical Center, Rochester, N.Y.). The AR promoter gene (−3600 to +550) encompassing the transcription start site was isolated by using PCR to generate hAR-luc with suitable primers. The fragment was subcloned into the pGL3 luciferase reporter vector (Promega, Madison, Wis.) at KpnI and BglII in the multiple cloning site. The PPRE-x3-TK-Luc reporter vector contains three copies of the PPAR-response element (PPRE) upstream of the thymidine kinase promoter-luciferase fusion gene and was kindly provided by Dr. Bruce Spiegelman (Harvard University, Cambridge, Mass.). The pCMVSp1 plasmid was purchased from Origene Technologies, Inc. (Rockville, Md.). LNCaP or PC3 cells were transfected with 5 μg of individual plasmids in an Amaxa Nucleofector using a cell line-specific nucleofector kit according to the manufacturer's protocol (Amaxa Biosystems, Cologne, Germany), and then seeded in 6-well plates at 5×10^5 cells per well for 48 h. The transfection efficiency was determined to be 70-80% by transfecting cells with 2 μg of pmaxGFP plasmid, followed by fluorescence microscopy to measure GFP expression. For each transfection, herpes simplex virus thymidine kinase promoter-driven Renilla reniformis luciferase was used as an internal control for normalization.
For the reporter gene assay, after transfection, cells were cultured in 24-well plates in 10% FBS-supplemented RPMI 1640 medium for 48 h, subject to different treatments for the indicated times, collected, and lysed with passive lysis buffer (Promega). Fifty-μl aliquots of the lysates were added to 96-well plates, and luciferase activity was monitored after adding 100 μl of luciferase substrate (Promega) each well by using a MicroLumatPlus LB96V luminometer (Berthold Technologies, Oak Ridge, Tenn.) with the WinGlow software package. All transfection experiments were carried out in six replicate.

[1] = tested on: androgen receptor (AR) expression; assay: Western blot analysis of AR protein expression in LNCaP cells; settings: for suppression of AR protein expression (in words): 72 h, Western blot
Procedure: RT-PCR and Immunoblotting. LNCaP cells were cultured in T25 flasks at an initial density of 1×10^6 cells/flask. After exposure to various compounds at the indicated conditions, cells were subject to total RNA isolation by using an RNeasy mini-kit (QIAGEN, Valencia, Calif.). RNA concentrations were determined by measuring absorption at 260 nm in a spectrophotometer. Aliquots of 6 μg of total RNA from each sample were reverse-transcribed to cDNA using an Omniscript RT Kit (QIAGEN) according to the manufacturer's instructions, using suitable primers.
For immunoblotting, protein extracts were prepared by M-PER Mammalian Protein Extraction Reagent (Pierce, Rockford, Ill.) with freshly added 1% phosphatase and protease inhibitor cocktails (Calbiochem) followed by centrifugation at 13,000×g for 10 min. Supernatant was collected and protein concentration was determined by protein assay reagent (Bio-Rad, CA). Protein extracts were then suspended in 2×SDS sample buffer, and subject to 10% SDS-polyacrylamide gels. After electrophoresis, proteins were transferred to nitrocellulose membranes using a semidry transfer cell. The transblotted membrane was washed twice with Tris-buffered saline containing 0.1% Tween 20 (TBST). After blocking with TBST containing 5% nonfat milk for 1 h, the membrane was incubated with mouse monoclonal anti-AR (Santa Cruz) or anti-β-actin (MP Biomedicals) antibodies (diluted 1:1000) in 1% TBST nonfat milk at 4° C. overnight. After incubation with the primary antibody, the membrane was washed three times with TBST for a total of 30 min, followed by incubation with horseradish peroxidase conjugated goat anti-mouse IgG (diluted 1:2500) for 1 h at room temperature. After three thorough washes with TBST for a total of 30 min, the immunoblots were visualized by enhanced chemiluminescence.

[2] = tested on: LNCaP androgen-responsive prostate cancer cells; assay: MTT cell viability assay, LNCaP cells; settings: 48 h
Procedure: Cell Counting and Cell Viability Assay. LNCaP or PC-3 cells were placed in six-well plates (2.5×10^5 cells/well) in 10% FBS-supplemented RPMI 1640 for 24 h, and treated with various concentrations of compound 12 for additional 24, 48 and 72 h. Cells were then trypsinized and counted by using a Coulter counter (Model Z1 D/T, Beckman Coulter, Fullerton, Calif.). Cell viability was assessed by using the 3-(4,5-dimethylthiazol-2-yl)-2,5-diphenyl-2H-tetrazolium bromide (MTT) assay in six replicates in 96-well plates. LNCaP or PC-3 cells were seeded at 6000 cells per well in 10% FBS-supplemented RPMI 1640 for 24 h, followed by treatments with various compounds in 5% FBS-supplemented RPMI 1640 at the indicated concentrations. Controls received DMSO at a concentration equal to that in drug-treated cells. After the end of incubation, MTT (0.5 mg/ml) in 10% FBS-supplemented RPMI 1640 was added to each well, and cells were incubated at 37° C. for 2 hours. Medium was removed and the reduced MTT dye was solubilized in DMSO (200 μl/well). Absorbance was determined at 570 nm by a 96-well plate reader.

[3] = tested on: PARP cleavage, caspase 3 and caspase 7 activation; assay: Western blot of apoptosis-related biomarkers in LNCaP cells; settings: 72 h
PPARγ = target: T1, PPARγ (Homo sapiens, UniProt P37231); assay: PPRE-luciferase reporter assay (PPRE-x3-TK-Luc) in PC-3 cells; settings: PC-3 cells transfected with PPRE-x3-TK-Luc
T1 construct: In PC-3 cells transfected with a reporter construct (PPRE-x3-TK-Luc); endogenous in cells; host or cells: PC-3
T1 sequence (P37231 1-505): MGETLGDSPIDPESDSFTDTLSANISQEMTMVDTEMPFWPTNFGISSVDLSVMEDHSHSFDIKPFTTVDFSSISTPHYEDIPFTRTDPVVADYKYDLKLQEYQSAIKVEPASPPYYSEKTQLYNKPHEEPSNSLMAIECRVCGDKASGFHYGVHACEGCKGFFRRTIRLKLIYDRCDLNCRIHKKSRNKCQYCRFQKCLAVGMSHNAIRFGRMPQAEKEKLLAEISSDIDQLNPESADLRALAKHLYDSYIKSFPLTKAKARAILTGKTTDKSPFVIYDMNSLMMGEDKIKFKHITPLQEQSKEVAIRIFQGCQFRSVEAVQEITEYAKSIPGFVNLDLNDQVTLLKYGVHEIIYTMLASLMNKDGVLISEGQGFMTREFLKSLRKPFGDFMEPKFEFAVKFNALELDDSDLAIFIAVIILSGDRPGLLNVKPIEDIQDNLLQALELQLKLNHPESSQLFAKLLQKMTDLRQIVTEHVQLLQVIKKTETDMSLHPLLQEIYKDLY
Text: as §1, with “The transfection efficiency was determined to be 70-80% by transfecting cells with 2 μg of pmaxGFP plasmid, followed by fluorescence microscopy to measure GFP expression.” left out
Fifty-μl aliquots of the lysates were added to 96-well plates, and luciferase activity was monitored after adding 100 μl of luciferase substrate (Promega) each well by using a MicroLumatPlus LB96V luminometer (Berthold Technologies, Oak Ridge, Tenn.) with the WinGlow software package. All transfection experiments were carried out in six replicate.

SMILES	suppression of AR promoter-luciferase activity / AR transcription (in words) (AR promoter)	suppression of AR protein expression (in words) ([1]; 10% FBS)	inhibition of LNCaP cell viability (in words) [2]	other results
CC1(COc2cccc(/C=C3\SC(=O)NC3=O)c2)CCCCC1 [Compound 1, 5-[3-(1-Methyl-cyclohexylmethoxy)-benzylidene]-thiazolidine-2,4-dione]	enhanced AR-ablating activity	dose-dependent effect on suppressing AR protein expression		
CCOc1cc(/C=C2\SC(=O)NC2=O)ccc1OCC1(C)CCCCC1 [Compound 6, 5-[3-Ethoxy-4-(1-methyl-cyclohexylmethoxy)-benzylidene]-thiazolidine-2,4-dione]		dose-dependent effect on suppressing AR protein expression		
CC1(CN2C(=O)S/C(=C\c3ccc(O)cc3)C2=O)CCCCC1 [Compound 9, 5-(4-Hydroxy-benzylidene)-3-(1-methyl-cyclohexylmethyl)-thiazolidine-2,4-dione]	enhanced AR-ablating activity	dose-dependent effect on suppressing AR protein expression		
CC1(CN2C(=O)S/C(=C\c3ccccc3O)C2=O)CCCCC1 [Compound 10, 5-(2-Hydroxy-benzylidene)-3-(1-methyl-cyclohexylmethyl)-thiazolidine-2,4-dione]	abolished the ability to suppress		abolished the ability to suppress	
CC1(CN2C(=O)S/C(=C\c3cccc(O)c3)C2=O)CCCCC1 [Compound 11, 5-(3-Hydroxy-benzylidene)-3-(1-methyl-cyclohexylmethyl)-thiazolidine-2,4-dione]	abolished the ability to suppress		abolished the ability to suppress	
CC1(CN2C(=O)S/C(=C\c3cc(Br)c(O)c(Br)c3)C2=O)CCCCC1 [Compound 16, 5-(3,5-Dibromo-4-hydroxy-benzylidene)-3-(1-methyl-cyclohexylmethyl)-thiazolidine-2,4-dione]	optimal agents		optimal agents	apoptosis-related biomarkers: PARP cleavage, proteolytic activation of caspase 3 and caspase 7 [3]: dose-dependent effects; IC50 ([1]; 72-h exposure, Western blot (FIG. 4C), read-out: IC50 for suppressing AR expression): ~4 µM; PPARγ activation (in words) (PPARγ): lacked appreciable activity
CC1(CN2C(=O)SC(Cc3ccc(O)c(C(F)(F)F)c3)C2=O)CCCCC1 (stereo not shown) [Compound 20, 5-(4-Hydroxy-3-trifluoromethyl-benzyl)-3-(1-methyl-cyclohexylmethyl)-thiazolidine-2,4-dione]		retained the ability to suppress AR expression and cell viability, though with slightly lower potency	retained the ability to suppress AR expression and cell viability, though with slightly lower potency	
CC1(COc2ccc(C=C3SC(=O)NC3=O)cc2)CCCCC1 [Δ2CG, reference compound]		modestly higher potency than ciglitazone		concentration required for complete suppression of AR protein expression ([1]; 10% FBS, Western blot (FIG. 2A)): approximately 30 μM; PPARγ activation (in words) (PPARγ): lacked appreciable activity
